# Laboratory results taken from US12509444B2, “Compounds and methods for CD73 modulation and indications therefor” (Plexxikon Inc., priority 2019, dated 2025).
# Biological target: T1, Human CD73 (amino acid residues 27-549) (Homo sapiens, UniProt P21589)
# T1 construct: Human CD73 (amino acid residues 27-549); His tag (N); made in house; host or cells: E. coli
# T1 sequence (P21589 27-549): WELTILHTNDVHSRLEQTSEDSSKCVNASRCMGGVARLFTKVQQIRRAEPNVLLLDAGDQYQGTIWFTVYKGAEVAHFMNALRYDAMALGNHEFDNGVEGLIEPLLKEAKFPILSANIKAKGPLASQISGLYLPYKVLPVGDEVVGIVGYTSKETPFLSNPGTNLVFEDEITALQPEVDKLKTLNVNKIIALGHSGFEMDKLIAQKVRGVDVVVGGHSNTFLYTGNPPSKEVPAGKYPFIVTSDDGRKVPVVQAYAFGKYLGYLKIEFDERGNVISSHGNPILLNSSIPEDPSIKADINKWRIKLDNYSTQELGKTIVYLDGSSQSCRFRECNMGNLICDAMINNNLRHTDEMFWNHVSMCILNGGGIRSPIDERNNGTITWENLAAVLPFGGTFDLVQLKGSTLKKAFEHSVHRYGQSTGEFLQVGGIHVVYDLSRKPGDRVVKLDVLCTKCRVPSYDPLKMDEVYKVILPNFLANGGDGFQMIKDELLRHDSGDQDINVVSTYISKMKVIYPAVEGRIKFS
# Test: CD73 enzymatic assay (luciferase-based indirect assay, CellTiter-Glo)
# Format: biochemical
# Settings: 0.4 nM CD73, 150 μM AMP, 1 hour at room temperature
# Protocol: CD73 enzymatic activity was measured in a luciferase-based indirect assay using CellTiter-Glo® system from Promega. The luciferase reaction in the presence of ATP is inhibited by AMP, a primary substrate of CD73. Addition of CD73 enzyme to the reaction converts AMP to adenosine, and release the inhibition, producing a luminescent signal. Inhibition of CD73 leads to the decrease of this luminescent signal.
# Human CD73 (amino acid residues 27-549) with N-Terminal His tag was purified in E. coli. All the assay components were prepared in 50 mM HEPEs buffer (pH 7.4) with 0.01% Tween® 20. The CD73 enzymatic assay was performed using 0.4 nM CD73 and 150 μM AMP. 9.5 μL of CD73 protein and 9.5 μL of AMP were added to the wells of a 384 well plate containing 1 μL of various concentrations of test compound or DMSO vehicle and incubated for 1 hour at room temperature. 16 wells containing CD73, AMP and 5% DMSO served as high control. 16 wells containing AMP and 5% DMSO served as low control. Enzymatic reaction was stopped and AMP level was measured indirectly by adding 5 μL of CellTiter-Glo® 2.0 reagent and 5 μL of ATP with a final concentration of 1 μM. Following incubation of the plate at room temperature for 30 minutes, luminescent signal was read on a Tecan plate reader. The percentage inhibition at individual concentrations relative to high and low controls was calculated. The data were analyzed by using nonlinear regression to generate IC50 values.
row,IC50 [µM],SMILES
1,0.001 to 10,"CCCCOC(=O)N[C@@H]1CCN(c2cn[nH]c(=O)c2Cl)C1 [P-0001, butyl (R)-(1-(5-chloro-6-oxo-1,6-dihydropyridazin-4-yl)pyrrolidin-3-yl)carbamate]"
2,10 to 100,"CC(C)(C)OC(=O)N[C@H]1CCN(c2cn[nH]c(=O)c2Cl)C1 [P-0002, tert-butyl (S)-(1-(5-chloro-6-oxo-1,6-dihydropyridazin-4-yl)pyrrolidin-3-yl)carbamate]"
3,0.001 to 10,"O=C(NC1CCCCCC1)N[C@@H]1CCN(c2cn[nH]c(=O)c2Cl)C1 [P-0003, (R)-1-(1-(5-chloro-6-oxo-1,6-dihydropyridazin-4-yl)pyrrolidin-3-yl)-3-cycloheptylurea]"
4,0.001 to 10,"O=C(NCC1CCCC1)N[C@@H]1CCN(c2cn[nH]c(=O)c2Cl)C1 [P-0004, (R)-1-(1-(5-chloro-6-oxo-1,6-dihydropyridazin-4-yl)pyrrolidin-3-yl)-3-(cyclopentylmethyl)urea]"
5,0.001 to 10,"O=C(NCC1CCOC1)N[C@@H]1CCN(c2cn[nH]c(=O)c2Cl)C1 (stereo partly drawn) [P-0005, 1-((R)-1-(5-chloro-6-oxo-1,6-dihydropyridazin-4-yl)pyrrolidin-3-yl)-3-((tetrahydrofuran-3-yl)methyl)urea]"
6,10 to 100,"O=C(NCC1CCS(=O)(=O)C1)N[C@@H]1CCN(c2cn[nH]c(=O)c2Cl)C1 (stereo partly drawn) [P-0006, 1-((R)-1-(5-chloro-6-oxo-1,6-dihydropyridazin-4-yl)pyrrolidin-3-yl)-3-((1,1-dioxidotetrahydrothiophen-3-yl)methyl)urea]"
7,0.001 to 10,"O=C(NCC1CCCCC1)N[C@@H]1CCN(c2cn[nH]c(=O)c2Cl)C1 [P-0007, (R)-1-(1-(5-chloro-6-oxo-1,6-dihydropyridazin-4-yl)pyrrolidin-3-yl)-3-(cyclohexylmethyl)urea]"
8,0.001 to 10,"O=C(NCC1CCOCC1)N[C@@H]1CCN(c2cn[nH]c(=O)c2Cl)C1 [P-0008, (R)-1-(1-(5-chloro-6-oxo-1,6-dihydropyridazin-4-yl)pyrrolidin-3-yl)-3-((tetrahydro-2H-pyran-4-yl)methyl)urea]"
9,10 to 100,"O=C(Nc1cccnc1)N[C@@H]1CCN(c2cn[nH]c(=O)c2Cl)C1 [P-0009, (R)-1-(1-(5-chloro-6-oxo-1,6-dihydropyridazin-4-yl)pyrrolidin-3-yl)-3-(pyridin-3-yl)urea]"
10,0.001 to 10,"CC(C)(C)OC(=O)N[C@@H]1CCN(c2cn[nH]c(=O)c2Br)C1 [P-0011, tert-butyl (R)-(1-(5-bromo-6-oxo-1,6-dihydropyridazin-4-yl)pyrrolidin-3-yl)carbamate]"
11,0.001 to 10,"Cc1occc1NC(=O)N[C@@H]1CCN(c2cn[nH]c(=O)c2Cl)C1 [P-0012, (R)-1-(1-(5-chloro-6-oxo-1,6-dihydropyridazin-4-yl)pyrrolidin-3-yl)-3-(2-methylfuran-3-yl)urea]"
12,0.001 to 10,"O=C(Nc1ccsc1)N[C@@H]1CCN(c2cn[nH]c(=O)c2Cl)C1 [P-0013, (R)-1-(1-(5-chloro-6-oxo-1,6-dihydropyridazin-4-yl)pyrrolidin-3-yl)-3-(thiophen-3-yl)urea]"
13,10 to 100,"Cn1cc(NC(=O)N[C@@H]2CCN(c3cn[nH]c(=O)c3Cl)C2)cn1 [P-0014, (R)-1-(1-(5-chloro-6-oxo-1,6-dihydropyridazin-4-yl)pyrrolidin-3-yl)-3-(1-methyl-1H-pyrazol-4-yl)urea]"
14,10 to 100,"COCCCNC(=O)N[C@@H]1CCN(c2cn[nH]c(=O)c2Cl)C1 [P-0016, (R)-1-(1-(5-chloro-6-oxo-1,6-dihydropyridazin-4-yl)pyrrolidin-3-yl)-3-(3-methoxypropyl)urea]"
15,10 to 100,"O=C(NC1CCCC1)N[C@H]1CCN(c2cn[nH]c(=O)c2Cl)C1 [P-0023, (S)-1-(1-(5-chloro-6-oxo-1,6-dihydropyridazin-4-yl)pyrrolidin-3-yl)-3-cyclopentylurea]"
16,10 to 100,"O=C(NC1CCN(C(=O)C(F)(F)F)CC1)N[C@H]1CCN(c2cn[nH]c(=O)c2Cl)C1 [P-0024, (S)-1-(1-(5-chloro-6-oxo-1,6-dihydropyridazin-4-yl)pyrrolidin-3-yl)-3-(1-(2,2,2-trifluoroacetyl)piperidin-4-yl)urea]"

row,IC50 [µM],SMILES
1,0.001 to 10,"O=C(N[C@H]1CCN(c2cn[nH]c(=O)c2Cl)C1)OC1CCCCC1 [P-0025, cyclohexyl (S)-(1-(5-chloro-6-oxo-1,6-dihydropyridazin-4-yl)pyrrolidin-3-yl)carbamate]"
2,10 to 100,"CCOC(=O)CCNC(=O)N[C@@H]1CCN(c2cn[nH]c(=O)c2Cl)C1 [P-0026, ethyl (R)-3-(3-(1-(5-chloro-6-oxo-1,6-dihydropyridazin-4-yl)pyrrolidin-3-yl)ureido)propanoate]"
3,0.001 to 10,"Cc1noc(C)c1NC(=O)N[C@@H]1CCN(c2cn[nH]c(=O)c2Cl)C1 [P-0027, (R)-1-(1-(5-chloro-6-oxo-1,6-dihydropyridazin-4-yl)pyrrolidin-3-yl)-3-(3,5-dimethylisoxazol-4-yl)urea]"
4,10 to 100,"O=C(Nc1cccc(C(F)(F)F)c1)N[C@@H]1CCN(c2cn[nH]c(=O)c2Cl)C1 [P-0028, (R)-1-(1-(5-chloro-6-oxo-1,6-dihydropyridazin-4-yl)pyrrolidin-3-yl)-3-(3-(trifluoromethyl)phenyl)urea]"
5,0.001 to 10,"O=C(NC1CCOCC1)N[C@@H]1CCN(c2cn[nH]c(=O)c2Cl)C1 [P-0029, (R)-1-(1-(5-chloro-6-oxo-1,6-dihydropyridazin-4-yl)pyrrolidin-3-yl)-3-(tetrahydro-2H-pyran-4-yl)urea]"
6,10 to 100,"O=C(NCc1ccccc1)N[C@@H]1CCN(c2cn[nH]c(=O)c2Cl)C1 [P-0031, (R)-1-benzyl-3-(1-(5-chloro-6-oxo-1,6-dihydropyridazin-4-yl)pyrrolidin-3-yl)urea]"
7,10 to 100,"O=C(NCCc1ccccc1)N[C@@H]1CCN(c2cn[nH]c(=O)c2Cl)C1 [P-0032, (R)-1-(1-(5-chloro-6-oxo-1,6-dihydropyridazin-4-yl)pyrrolidin-3-yl)-3-phenethylurea]"
8,10 to 100,"COc1cccc(NC(=O)N[C@@H]2CCN(c3cn[nH]c(=O)c3Cl)C2)c1 [P-0033, (R)-1-(1-(5-chloro-6-oxo-1,6-dihydropyridazin-4-yl)pyrrolidin-3-yl)-3-(3-methoxyphenyl)urea]"
9,10 to 100,"CCOc1ccc(NC(=O)N[C@@H]2CCN(c3cn[nH]c(=O)c3Cl)C2)cc1 [P-0034, (R)-1-(1-(5-chloro-6-oxo-1,6-dihydropyridazin-4-yl)pyrrolidin-3-yl)-3-(4-ethoxyphenyl)urea]"
10,10 to 100,"CCOc1cccc(NC(=O)N[C@@H]2CCN(c3cn[nH]c(=O)c3Cl)C2)c1 [P-0035, (R)-1-(1-(5-chloro-6-oxo-1,6-dihydropyridazin-4-yl)pyrrolidin-3-yl)-3-(3-ethoxyphenyl)urea]"
11,0.001 to 10,"CC(C)(C)OC(=O)N[C@@H]1CCN(c2cn[nH]c(=O)c2C#N)C1 [P-0036, tert-butyl (R)-(1-(5-cyano-6-oxo-1,6-dihydropyridazin-4-yl)pyrrolidin-3-yl)carbamate]"
12,10 to 100,"CC(C)(C)OC(=O)N[C@@H]1CCN(c2cn[nH]c(=O)c2)C1 [P-0037, tert-butyl (R)-(1-(6-oxo-1,6-dihydropyridazin-4-yl)pyrrolidin-3-yl)carbamate]"
13,0.001 to 10,"O=C(Nc1ccccc1)N[C@@H]1CCN(c2cn[nH]c(=O)c2Cl)C1 [P-0038, (R)-1-(1-(5-chloro-6-oxo-1,6-dihydropyridazin-4-yl)pyrrolidin-3-yl)-3-phenylurea]"
14,10 to 100,"COc1ccc(CNC(=O)N[C@@H]2CCN(c3cn[nH]c(=O)c3Cl)C2)cc1OC [P-0040, (R)-1-(1-(5-chloro-6-oxo-1,6-dihydropyridazin-4-yl)pyrrolidin-3-yl)-3-(3,4-dimethoxybenzyl)urea]"
15,0.001 to 10,"O=C(Nc1ccc(OC(F)(F)F)cc1)N[C@@H]1CCN(c2cn[nH]c(=O)c2Cl)C1 [P-0041, (R)-1-(1-(5-chloro-6-oxo-1,6-dihydropyridazin-4-yl)pyrrolidin-3-yl)-3-(4-(trifluoromethoxy)phenyl)urea]"
16,0.001 to 10,"N#Cc1ccc(NC(=O)N[C@@H]2CCN(c3cn[nH]c(=O)c3Cl)C2)cc1 [P-0042, (R)-1-(1-(5-chloro-6-oxo-1,6-dihydropyridazin-4-yl)pyrrolidin-3-yl)-3-(4-cyanophenyl)urea]"

row,SMILES,IC50 [µM]
1,"O=C(N[C@@H]1CCN(c2cn[nH]c(=O)c2Cl)C1)Oc1ccccc1 [P-0010, phenyl (R)-(1-(5-chloro-6-oxo-1,6-dihydropyridazin-4-yl)pyrrolidin-3-yl)carbamate]",0.001 to 10
